This note sets out measurements from patent publication US20210078988A1, “MODULATORS OF INDOLEAMINE 2,3-DIOXYGENASE” (GLAXOSMITHKLINE INTELLECTUAL PROPERTY DEVELOPMENT LIMITED, priority 2017, published 2021).

In this assay the target is T1, indoleamine 2, 3-dioxygenase (IDO1) (Homo sapiens, UniProt P14902).
T1 construct: human peripheral blood mononuclear cells (PBMC) (PB003F; host or cells: human PBMC stimulated with IFN-gamma and LPS
The assay can be described thus: PBMC IDO1 assay (kynurenine detection via mass spectrometry). The settings on record: human PBMC stimulated with IFN-γ and LPS, 2 days, kynurenine by mass spectrometry; read-out: IDO1 PBMC pIC50 (converted). The class given is cell-based. The method, boiled down: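 Human PBMCs (50,000/well) stimulated with IFN-γ 100 ng/ml and LPS 50 ng/ml were exposed to 11-point 3-fold compound dilutions for 2 days at 37 °C. Supernatant kynurenine was quantified by RapidFire MS relative to an internal standard; parallel CellTiter-Glo ATP luminescence measured cytotoxicity, with four-parameter curve fitting.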

T1 sequence (P14902 whole entry): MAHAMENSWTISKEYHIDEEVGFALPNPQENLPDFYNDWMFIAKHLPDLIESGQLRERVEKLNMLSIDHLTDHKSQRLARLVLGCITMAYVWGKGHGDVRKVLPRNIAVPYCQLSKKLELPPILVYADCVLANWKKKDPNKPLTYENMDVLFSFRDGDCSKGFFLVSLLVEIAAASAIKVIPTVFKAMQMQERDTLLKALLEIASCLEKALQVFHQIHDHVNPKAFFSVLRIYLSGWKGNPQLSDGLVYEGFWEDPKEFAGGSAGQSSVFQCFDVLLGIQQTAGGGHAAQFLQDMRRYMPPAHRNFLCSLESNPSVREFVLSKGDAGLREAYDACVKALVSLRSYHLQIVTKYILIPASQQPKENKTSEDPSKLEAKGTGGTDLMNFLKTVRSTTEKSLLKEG

As for `CCCOc1ccc(C(=O)NC(CC2CCN(C(=O)OC(C)(C)C)CC2)c2ccccc2)cc1` (stereo not drawn) [Example 192, tert-butyl 4-(2-phenyl-2-(4-propoxybenzamido)ethyl)piperidine-1-carboxylate], the IC50 was 200 nM.

As for `CC(C)(C)OC(=O)N1CCC(CC(NC(=O)c2ccc3c(c2)OCO3)c2ccccc2)CC1` (stereo not drawn) [Example 175, tert-butyl 4-(2-(benzo[d][1,3]dioxole-5-carboxamido)-2-phenylethyl)piperidine-1-carboxylate], the IC50 is 126 nM. Next, `COc1cccc(C(=O)NC(CC2CCN(C(=O)OC(C)(C)C)CC2)c2ccccc2)c1` (stereo not drawn) [Example 216, tert-butyl 4-(2-(3-methoxybenzamido)-2-phenylethyl)piperidine-1-carboxylate]: 501 nM; `CC(C)c1ccc(C(=O)NC(CC2CCN(C(=O)OC(C)(C)C)CC2)c2ccccc2)cc1` (stereo not drawn) [Example 212, tert-butyl 4-(2-(4-isopropylbenzamido)-2-phenylethyl)piperidine-1-carboxylate]: 398 nM. For `CCc1ccc(C(=O)N[C@@H](CC2CCN(C(=O)OC(C)(C)C)CC2)C2CC2)s1` [Example 10, (S)-tert-butyl 4-(2-cyclopropyl-2-(5-ethylthiophene-2-carboxamido)ethyl)piperidine-1-carboxylate], the IC50 was 5.01 nM.

As to `COc1ccc([C@@H](CC2CCN(C(=O)OC(C)(C)C)CC2)NC(=O)c2ccc(Cl)s2)cn1` [Example 70, (R)-tert-butyl 4-(2-(5-chlorothiophene-2-carboxamido)-2-(6-methoxypyridin-3-yl)ethyl)piperidine-1-carboxylate], the IC50 is 15.8 nM.

In the case of `CCC(CC)c1nc(C(CC2CCN(C(=O)OC(C)(C)C)CC2)NC(=O)c2ccc(F)cc2)no1` (stereo not drawn) [Example 169, tert-butyl 4-(2-(4-fluorobenzamido)-2-(5-(pentan-3-yl)-1,2,4-oxadiazol-3-yl)ethyl)piperidine-1-carboxylate], the IC50 is 100 nM.

For the compound `O=C(NC(CC1CCN(C(=O)OCc2ccccc2)CC1)c1ccccc1)c1ccc(Cl)cc1` (stereo not drawn) [Example 117, benzyl 4-(2-(4-chlorobenzamido)-2-phenylethyl)piperidine-1-carboxylate], the IC50 is 31.6 nM.

Take `Cc1cc(C(=O)NC(CC2CCN(C(=O)OC(C)(C)C)CC2)c2ccccc2)ccc1F` (stereo not drawn) [Example 213, tert-butyl 4-(2-(4-fluoro-3-methylbenzamido)-2-phenylethyl)piperidine-1-carboxylate]: the IC50 is 398 nM. Next, `CC(C)(C)CC(=O)NC(CC1CCN(C(=O)OC(C)(C)C)CC1)c1ccccc1` (stereo not drawn) [Example 210, tert-butyl 4-(2-(3,3-dimethylbutanamido)-2-phenylethyl)piperidine-1-carboxylate]: 398 nM; `CC(C)(C)OC(=O)N1CCC(CC(NC(=O)C2CCCCCC2)c2ccccc2)CC1` (stereo not drawn) [Example 209, tert-butyl 4-(2-(cycloheptanecarboxamido)-2-phenylethyl)piperidine-1-carboxylate]: 398 nM; `CC(C)(C)OC(=O)N1CCC(CC(NC(=O)c2ccc(F)cc2)c2ccncc2)CC1` (stereo not drawn) [Example 208, tert-butyl 4-(2-(4-fluorobenzamido)-2-(pyridin-4-yl)ethyl)piperidine-1-carboxylate]: 398 nM. In the case of `CC(C)C(CC1CCN(C(=O)OC(C)(C)C)CC1)NC(=O)c1ccc(Br)cc1` (stereo not drawn) [Example 74, tert-butyl 4-(2-(4-bromobenzamido)-3-methylbutyl)piperidine-1-carboxylate], the IC50 was 15.8 nM.

Consider `O=C(NC(CC1CCN(C(=O)OC2COC2)CC1)c1ccccc1)c1ccc(Cl)cc1` (stereo not drawn) [Example 185, oxetan-3-yl 4-(2-(4-chlorobenzamido)-2-phenylethyl)piperidine-1-carboxylate], for which the IC50 is 158 nM. In the case of `COC(=O)N1CCC(CC(NC(=O)c2ccc(F)cc2)c2ccc(OC)nc2)CC1` (stereo not drawn) [Example 145, methyl 4-(2-(4-fluorobenzamido)-2-(6-methoxypyridin-3-yl)ethyl)piperidine-1-carboxylate] it was 79.4 nM; in that of `CC(C)CC(CC1CCN(C(=O)Oc2ccccc2)CC1)NC(=O)c1ccc(Cl)s1` (stereo not drawn) [Example 35, phenyl 4-(2-(5-chlorothiophene-2-carboxamido)-4-methylpentyl)piperidine-1-carboxylate], 6.31 nM.

In the case of `Cc1cc(C(=O)NC(CC2CCN(C(=O)OC(C)(C)C)CC2)c2ccccc2)cs1` (stereo not drawn) [Example 153, tert-butyl 4-(2-(5-methylthiophene-3-carboxamido)-2-phenylethyl)piperidine-1-carboxylate], the IC50 is 79.4 nM. Take `CC(C)CC(CC1CCN(C(=O)Oc2ccccc2)CC1)NC(=O)c1ccc(Cl)cc1` (stereo not drawn) [Example 67, phenyl 4-(2-(4-chlorobenzamido)-4-methylpentyl)piperidine-1-carboxylate]: the IC50 was 12.6 nM. In the case of `Cc1ccc(C(=O)NC(CC2CCN(C(=O)OC(C)(C)C)CC2)C(C)C)s1` (stereo not drawn) [Example 46, tert-butyl 4-(3-methyl-2-(5-methylthiophene-2-carboxamido)butyl)piperidine-1-carboxylate] it was 3.98 nM; in that of `CC#CCOc1ccc(C(=O)NC(CC2CCN(C(=O)OC(C)(C)C)CC2)c2ccccc2)cc1` (stereo not drawn) [Example 149, tert-butyl 4-(2-(4-(but-2-yn-1-yloxy)benzamido)-2-phenylethyl)piperidine-1-carboxylate], 79.4 nM; in that of `COC(=O)N1CCC(C[C@H](NC(=O)c2ccc(Cl)s2)C2CC2)CC1` [Example 13, (S)-methyl 4-(2-(5-chlorothiophene-2-carboxamido)-2-cyclopropylethyl)piperidine-1-carboxylate], 7.94 nM. In the case of `Cc1ccc(C(=O)NC(CC2CCN(C(=O)OC(C)(C)C)CC2)c2ccccc2)cc1F` (stereo not drawn) [Example 139, tert-butyl 4-(2-(3-fluoro-4-methylbenzamido)-2-phenylethyl)piperidine-1-carboxylate] it was 63.1 nM; in that of `Cc1ccc(C(=O)NC(CC2CCN(C(=O)OC(C)(C)C)CC2)c2ccccc2)cc1` (stereo not drawn) [Example 130, tert-butyl 4-(2-(4-methylbenzamido)-2-phenylethyl)piperidine-1-carboxylate], 50.1 nM. Next, `CC(C)(C)OC(=O)N1CCC(CC(NC(=O)c2ccc(C3CC3)c(F)c2)c2ccccc2)CC1` (stereo not drawn) [Example 133, tert-butyl 4-(2-(4-cyclopropyl-3-fluorobenzamido)-2-phenylethyl)piperidine-1-carboxylate]: 50.1 nM; `C=Cc1ccc(C(=O)NC(CC2CCN(C(=O)OC(C)(C)C)CC2)c2ccccc2)cc1` (stereo not drawn) [Example 119, tert-butyl 4-(2-phenyl-2-(4-vinylbenzamido)ethyl)piperidine-1-carboxylate]: 31.6 nM; `CCOC(=O)N1CCC(C[C@H](NC(=O)c2ccc(C)s2)C2CC2)CC1` [Example 11, (S)-ethyl 4-(2-cyclopropyl-2-(5-methylthiophene-2-carboxamido)ethyl)piperidine-1-carboxylate]: 5.01 nM. Regarding `Cc1csc(C(=O)NC(CC2CCN(C(=O)OC(C)(C)C)CC2)c2ccccc2)c1` (stereo not drawn) [Example 179, tert-butyl 4-(2-(4-methylthiophene-2-carboxamido)-2-phenylethyl)piperidine-1-carboxylate], the IC50 was 126 nM. Turning to `CC(C)(C)OC(=O)N1CCC(C[C@H](NC(=O)c2ccc(Cl)cc2)c2ccccc2)CC1` [Example 65, (S)-tert-butyl 4-(2-(4-chlorobenzamido)-2-phenylethyl)piperidine-1-carboxylate], the IC50 is 12.6 nM. In the case of `CCN(CC)c1nnc(C(CC2CCN(C(=O)OC(C)(C)C)CC2)NC(=O)c2ccc(Cl)s2)o1` (stereo not drawn) [Example 44, tert-butyl 4-(2-(5-chlorothiophene-2-carboxamido)-2-(5-(diethylamino)-1,3,4-oxadiazol-2-yl)ethyl)piperidine-1-carboxylate] it was 3.16 nM. Next, `CCN(C)c1nnc(C(CC2CCN(C(=O)OC(C)(C)C)CC2)NC(=O)c2ccc(C)s2)o1` (stereo not drawn) [Example 52, tert-butyl 4-(2-(5-(ethyl(methyl)amino)-1,3,4-oxadiazol-2-yl)-2-(5-methylthiophene-2-carboxamido)ethyl)piperidine-1-carboxylate]: 10 nM; `CC(C)(C)OC(=O)N1CCC(CC(NC(=O)c2ccc(Cl)cc2)C2CCCCC2)CC1` (stereo not drawn) [Example 135, tert-butyl 4-(2-(4-chlorobenzamido)-2-cyclohexylethyl)piperidine-1-carboxylate]: 50.1 nM; `O=C(NC(CC1CCN(C(=O)OC2CCCCC2)CC1)c1ccccc1)c1ccc(Cl)cc1` (stereo not drawn) [Example 150, cyclohexyl 4-(2-(4-chlorobenzamido)-2-phenylethyl)piperidine-1-carboxylate]: 79.4 nM.

Regarding `CC(C)(C)OC(=O)N1CCC(CC(NC(=O)c2ccc(F)s2)C2CCCCC2)CC1` (stereo not drawn) [Example 92, tert-butyl 4-(2-cyclohexyl-2-(5-fluorothiophene-2-carboxamido)ethyl)piperidine-1-carboxylate], the IC50 was 20 nM. In the case of `COc1ccc([C@H](CC2CCN(C(=O)NC(C)(C)C)CC2)NC(=O)c2ccc(Cl)s2)cn1` [Example 40, (S)-N-(tert-butyl)-4-(2-(5-chlorothiophene-2-carboxamido)-2-(6-methoxypyridin-3-yl)ethyl)piperidine-1-carboxamide] it was 3.98 nM. As to `CC(C)(C)OC(=O)N1CCC(CC(NC(=O)c2ccccc2O)c2ccccc2)CC1` (stereo not drawn) [Example 194, tert-butyl 4-(2-(2-hydroxybenzamido)-2-phenylethyl)piperidine-1-carboxylate], the IC50 was 251 nM.

`Cc1ccc(C(=O)NC(CC2CCN(c3ccccc3)CC2)c2ccccc2)s1` (stereo not drawn) [Example 137, 5-methyl-N-(1-phenyl-2-(1-phenylpiperidin-4-yl)ethyl)thiophene-2-carboxamide]: the IC50 was 50.1 nM.
